This is an account of results in patent US20120101083A1, “S1P1 AGONISTS COMPRISING A BICYCLIC N-CONTAINING RING” (GLAXO GROUP LIMITED, priority 2009, published 2012).

Counter-ions that a name gives are not always drawn.

The target of this assay is T1, S1P1 receptor (S1P1 expressing RH7777 membranes) (Homo sapiens, UniProt P21453).
T1 construct: expressed in transfected cells; host or cells: RH7777 cells (membranes)
T1 sequence (P21453 whole entry): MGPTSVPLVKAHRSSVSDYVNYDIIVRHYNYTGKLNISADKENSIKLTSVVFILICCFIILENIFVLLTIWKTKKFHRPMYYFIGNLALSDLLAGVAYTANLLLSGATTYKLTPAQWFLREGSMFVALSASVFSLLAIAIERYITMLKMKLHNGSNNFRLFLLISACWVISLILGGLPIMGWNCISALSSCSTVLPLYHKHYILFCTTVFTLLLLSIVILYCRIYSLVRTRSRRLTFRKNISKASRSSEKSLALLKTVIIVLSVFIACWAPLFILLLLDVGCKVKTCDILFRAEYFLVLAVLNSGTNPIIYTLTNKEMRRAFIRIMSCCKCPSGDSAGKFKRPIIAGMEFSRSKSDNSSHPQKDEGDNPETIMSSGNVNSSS
Description: S1P1 GTPγS assay. It is filed as biochemical. Conditions: tested in one of the above S1P1 assays (two GTPγS formats). The protocol: The potencies and efficacies of the compounds of this invention for the S1P1 receptor can be determined by GTPγS assay performed on the human cloned receptor as described herein.
Membrane preparation for S1P1 GTPγS assay
All steps were performed at 4° C. Cells were homogenised within a glass Waring blender for 2 bursts of 15 secs in 200 mls of buffer (50 mM HEPES, 1 mM leupeptin, 25 μg/ml bacitracin, 1 mM EDTA, 1 mM PMSF, 2 μM pepstatin A). The blender was plunged into ice for 5 mins after the first burst and 10-40 mins after the final burst to allow foam to dissipate. The material was then spun at 500 g for 20 mins and the supernatant spun for 36 mins at 48,000 g. The pellet was resuspended in the same buffer as above but without PMSF and pepstatin A. The material was then forced through a 0.6 mm needle, made up to the required volume, (usually x4 the volume of the original cell pellet), aliquoted and stored frozen at −80° C.
S1P1 expressing RH7777 membranes (1.5 μg/well) membranes (1.5 μg/well) were homogenised by passing through a 23 G needle. These were then adhered to WGA-coated SPA beads (0.125 mg/well) in assay buffer (HEPES 20 mM, MgCl2 10 mM, NaCl 100 mM and pH adjusted to 7.4 using KOH 5M). GDP 10 μM FAC and saponin 90 μg/ml FAC were also added
After 30 minutes precoupling on ice, the bead and membrane suspension was dispensed into white Greiner polypropylene LV 384-well plates (5 μl/well), containing […] of compound. 5 μl/well [^35S]-GTPγS (0.5 nM for S1P1 or 0.3 nM for S1P3 final radioligand concentration) made in assay buffer was then added to the plates. The final assay cocktail (10.1 μl) was then sealed, spun on a centrifuge, then read immediately on a Viewlux instrument.
Alternatively, after 30 minutes precoupling on ice, the bead and membrane suspension was mixed with ^35S]-GTPγS (0.5 nM final radioligand concentration) in assay buffer (HEPES 20 mM, MgCl2 10 mM, NaCl 100 mM and pH adjusted to 7.4 using KOH 5M) in a 1:1 ratio. The bead, membrane and radioligand suspension was dispensed into white Greiner polypropylene low volume 384-well plates (10 μl/well), containing 0.1 μl of a solution of test compound in 100% DMSO. The final assay cocktail (10.1 μl) was then sealed, spun on a centrifuge, then read immediately on a Viewlux instrument.
In general, EC50 refers to the concentration needed to bring the measured effect to its halfway point. Read a low EC50 as greater potency. `COC(=O)NCCCN1CCc2ccc(-c3noc(-c4ccc(OC(C)C)c(C#N)c4)n3)cc2CC1` [Example 102, methyl {3-[7-(5-{3-cyano-4-[(1-methylethyl)oxy]phenyl}-1,2,4-oxadiazol-3-yl)-1,2,4,5-tetrahydro-3H-3-benzazepin-3-yl]propyl}carbamate] had an EC50 of no more than 1000 nM.
For the molecule `COCCN1CCc2ccc(-c3nnc(-c4ccc(OC(C)C)c(C#N)c4)s3)cc2CC1` [Example 30, 2-[(1-Methylethyl)oxy]-5-(5-{3-[2-(methyloxy)ethyl]-2,3,4,5-tetrahydro-1H-3-benzazepin-7-yl}-1,3,4-thiadiazol-2-yl)benzonitrile hydrochloride], the EC50 was no more than 1000 nM.
To `N#Cc1cc(-c2nc(-c3ccc4c(c3)CCN(CC(O)CO)CC4)no2)ccc1N1CCC(F)C1` (centres unmarked) [Example 55, 5-{3-[3-(2,3-dihydroxypropyl)-2,3,4,5-tetrahydro-1H-3-benzazepin-7-yl]-1,2,4-oxadiazol-5-yl}-2-(3-fluoro-1-pyrrolidinyl)benzonitrile] belongs no more than 1000 nM; to `CC(C)Oc1ccc(-c2nc(-c3ccc4c(c3)CCN(C(=O)[C@](C)(N)CO)CC4)no2)cc1C#N` [Example 84, 2-[(1-methylethyl)oxy]-5-{3-[3-(2-methyl-D-seryl)-2,3,4,5-tetrahydro-1H-3-benzazepin-7-yl]-1,2,4-oxadiazol-5-yl}benzonitrile], no more than 1000 nM; to `CC(C)Oc1ccc(-c2nc(-c3ccc4c(c3)CCN(CCO)CC4)no2)cc1C#N` [Example 19, 5-{3-[3-(2-Hydroxyethyl)-2,3,4,5-tetrahydro-1H-3-benzazepin-7-yl]-1,2,4-oxadiazol-5-yl}-2-[(1-methylethyl)oxy]benzonitrile], no more than 100 nM.
In the case of `CC(C)Oc1ccc(-c2nc(-c3ccc4c(c3)CCN(C(=O)[C@@H](N)[C@@H](C)O)CC4)no2)cc1C#N` [Example 59, 2-[(1-methylethyl)oxy]-5-[3-(3-L-threonyl-2,3,4,5-tetrahydro-1H-3-benzazepin-7-yl)-1,2,4-oxadiazol-5-yl]benzonitrile] it was no more than 100 nM; in that of `CCCNc1ncc(-c2nc(-c3ccc4c(c3)CCN(C(CO)CO)CC4)no2)cc1C#N` [Example 150, 5-(3-{3-[2-hydroxy-1-(hydroxymethyl)ethyl]-2,3,4,5-tetrahydro-1H-3-benzazepin-7-yl}-1,2,4-oxadiazol-5-yl)-2-(propylamino)-3-pyridinecarbonitrile dihydrochloride], no more than 1000 nM; in that of `CCOc1ncc(-c2nc(-c3ccc4c(c3)CCN(C(=O)CN)CC4)no2)cc1C#N` [Example 113, 2-(ethyloxy)-5-[3-(3-glycyl-2,3,4,5-tetrahydro-1H-3-benzazepin-7-yl)-1,2,4-oxadiazol-5-yl]-3-pyridinecarbonitrile], no more than 1000 nM.
In turn, `Cc1c(-c2nnc(-c3ccc(OC(C)C)c(C#N)c3)s2)ccc2c1CCN(CCC(=O)N(C)C)C2` [Example 12, 3-[6-(5-{3-Cyano-4-[(1-methylethyl)oxy]phenyl}-1,3,4-thiadiazol-2-yl)-5-methyl-3,4-dihydro-2(1H)-isoquinolinyl]-N,N-dimethylpropanamide] gave an EC50 of no more than 100 nM.
The molecule `CC(C)Oc1ccc(-c2nc(-c3ccc4c(c3)CCN(C(=O)CN[C@@H](C)CO)CC4)no2)cc1C#N` [Example 99, 5-[3-(3-{N-[(1S)-2-hydroxy-1-methylethyl]glycyl}-2,3,4,5-tetrahydro-1H-3-benzazepin-7-yl)-1,2,4-oxadiazol-5-yl]-2-[(1-methylethyl)oxy]benzonitrile hydrochloride] gave an EC50 of no more than 10 nM.
To `CCCNc1ncc(-c2nc(-c3ccc4c(c3C)CCN(C(CO)CO)CC4)no2)cc1C#N` [Example 149, 5-(3-{3-[2-hydroxy-1-(hydroxymethyl)ethyl]-6-methyl-2,3,4,5-tetrahydro-1H-3-benzazepin-7-yl}-1,2,4-oxadiazol-5-yl)-2-(propylamino)-3-pyridinecarbonitrile] belongs no more than 1000 nM.
In the case of `N#Cc1cc(-c2nc(-c3ccc4c(c3)CCN(C(=O)CN)CC4)no2)ccc1N1CCC(F)C1` (centres unmarked) [Example 57, 2-(3-fluoro-1-pyrrolidinyl)-5-[3-(3-glycyl-2,3,4,5-tetrahydro-1H-3-benzazepin-7-yl)-1,2,4-oxadiazol-5-yl]benzonitrile], the 50% effective concentration (EC50) was no more than 1000 nM.
In the case of `Cc1c(-c2noc(-c3ccc(OC(C)C)c(C#N)c3)n2)ccc2c1CCN(C(=O)CN)CC2` [Example 140, 5-[3-(3-glycyl-6-methyl-2,3,4,5-tetrahydro-1H-3-benzazepin-7-yl)-1,2,4-oxadiazol-5-yl]-2-[(1-methylethyl)oxy]benzonitrile hydrochloride] it was no more than 100 nM; in that of `CC(=O)NCCN1CCc2ccc(-c3noc(-c4ccc(OC(C)C)c(C#N)c4)n3)cc2CC1` [Example 101, N-{2-[7-(5-{3-cyano-4-[(1-methylethyl)oxy]phenyl}-1,2,4-oxadiazol-3-yl)-1,2,4,5-tetrahydro-3H-3-benzazepin-3-yl]ethyl}acetamide], no more than 10 nM.
In the case of `CC(C)Oc1ncc(-c2nc(-c3ccc4c(c3)CCN(C[C@H](O)CO)CC4)no2)cc1C#N` [Example 96, 5-(3-{3-[(2S)-2,3-dihydroxypropyl]-2,3,4,5-tetrahydro-1H-3-benzazepin-7-yl}-1,2,4-oxadiazol-5-yl)-2-[(1-methylethyl)oxy]-3-pyridinecarbonitrile] it was no more than 10 nM; in that of `CCCOc1ncc(-c2nc(-c3ccc4c(c3)CCN(C[C@H](O)CO)CC4)no2)cc1C#N` [Example 115, 5-(3-{3-[(2S)-2,3-dihydroxypropyl]-2,3,4,5-tetrahydro-1H-3-benzazepin-7-yl}-1,2,4-oxadiazol-5-yl)-2-(propyloxy)-3-pyridinecarbonitrile], no more than 1000 nM.
In the case of `N#Cc1cc(-c2nc(-c3ccc4c(c3)CCN(CC(O)CO)CC4)no2)ccc1OC(CF)CF` (centres unmarked) [Example 60, 5-{3-[3-(2,3-dihydroxypropyl)-2,3,4,5-tetrahydro-1H-3-benzazepin-7-yl]-1,2,4-oxadiazol-5-yl}-2-{[2-fluoro-1-(fluoromethyl)ethyl]oxy}benzonitrile] it was no more than 100 nM.
